Test results: patent US20220402862A1 (Intellia Therapeutics, Inc., priority 2019, published 2022)

Tests used:
[1] = RNA encapsulation efficiency of LNPs (Ribogreen fluorescence assay); assay type: physicochemical; details: LNP, sg:mRNA 1:1, N/P about 6, amine lipid/DSPC/cholesterol/PEG-2k-DMG 50/9/38/3; Table 2, Experiments 2-20
In short: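 Encapsulation efficiency is (Total RNA − Free RNA)/Total RNA. Free RNA was quantified by RiboGreen fluorescence (488/525 nm, ~10 min, RT, dark) in plain TE buffer; total RNA was quantified after LNP lysis with 0.2% Triton X-100, both against RNA standard curves.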

[2] = Dynamic light scattering of LNPs: Z-average diameter, number average diameter, PDI; assay type: physicochemical; details: LNP, sg:mRNA 1:1, N/P about 6, 50/9/38/3; Table 2, Experiments 2-20
In short: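 Values reported are the Z-average (intensity-weighted mean size), the number-average diameter and the PDI (spread of sizes, 0 = fully uniform). All three came from dynamic light scattering of LNP preparations after dilution in PBS.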

[3] = test system: Transthyretin (TTR); experiment: Serum TTR ELISA in mice after LNP dosing; assay type: in vivo, CD-1 female mice; details: guide G282 experiments; for Serum TTR % TSS: mouse serum TTR relative to TSS control; for Serum TTR: mouse serum, ELISA
In short: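 Serum mouse TTR was quantified by ELISA at 10,000-fold dilution for 0.1 mg/kg and 10,000/2,500-fold for 0.3 mg/kg. Samples came from female CD-1 mice (6–10 weeks) killed 6 or 7 days after a single intravenous LNP dose, usually 0.1 mg/kg.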

[4] = pKa measurement of unformulated amine lipid (fluorescence, method of Jayaraman et al.); assay type: physicochemical; details: 100 μM in 0.1 M phosphate buffer, pH 2.0-12.0
Experimental: The pKa of each amine lipid was determined according to the method in Jayaraman, et al. (Angewandte Chemie, 2012) with the following adaptations. […] Lipid was diluted to 100 μM in 0.1 M phosphate buffer (Boston Bioproducts) where the pH ranged from 2.0-12.0. Fluorescence intensity was measured using excitation and emission wavelengths of 321 nm and 448 nm.

With `CCCCCCCCCCOC(=O)CCCCCCCC(=O)OCC(COC(=O)CCC(OCCCCCCCC)OCCCCCCCC)COC(=O)OCC1CCCN(CC)C1` (stereo not shown) [Compound 72, 1-(3-((4,4-bis(octyloxy)butanoyl)oxy)-2-(((((1-ethylpiperidin-3-yl)methoxy)carbonyl)oxy)methyl)propyl) 9-decyl nonanedioate] the “Encapsulation (%)” value [1] was 99%, the “Number mean (nm)” value [2] was 75.22 nm and the PDI [2] was 0.002. The “Z-avg (nm)” value [2] was 91.65 nm, the “Serum TTR % TSS” value [3] was 52% and the “Serum TTR” value [3] was 479 µg/mL. For the same compound, the pKa [4] was 6.07.
For `CCCCCCCCCCOC(=O)CCCCCCCC(=O)OCC(COC(=O)CCC(OCCCCCCCC)OCCCCCCCC)COC(=O)NCCN(CC)CC` (stereo not shown) [Compound 73, 1-(3-((4,4-bis(octyloxy)butanoyl)oxy)-2-((((2-(diethylamino)ethyl)carbamoyl)oxy)methyl)propyl) 9-decyl nonanedioate], the “Encapsulation (%)” value [1] was 97%, the “Number mean (nm)” value [2] was 94.5 nm and the PDI [2] was 0.008. The “Z-avg (nm)” value [2] was 110.6 nm, the “Serum TTR % TSS” value [3] was 60% and the “Serum TTR” value [3] was 550 µg/mL. The pKa [4] was 6.64.
With `CCCCCCCCCCOC(=O)CCCCCCCC(=O)OCC(COC(=O)CCC(OCCCCCCCC)OCCCCCCCC)COC(=O)OCCC1CCCN1C` (stereo not shown) [Compound 74, 1-(3-((4,4-bis(octyloxy)butanoyl)oxy)-2-((((2-(1-methylpyrrolidin-2-yl)ethoxy)carbonyl)oxy)methyl)propyl) 9-decyl nonanedioate] the “Encapsulation (%)” value [1] was 99%, the “Number mean (nm)” value [2] was 87.14 nm and the PDI [2] was 0.021. For the same compound, the “Z-avg (nm)” value [2] was 105.7 nm, the “Serum TTR % TSS” value [3] was 44% and the “Serum TTR” value [3] was 406 µg/mL. The pKa [4] was 6.39.
For `CCCCCCCCCCOC(=O)CCCCCCCC(=O)OCC(COC(=O)CCCN(CC)CC)COC(=O)CCC(OCCCCCCCC)OCCCCCCCC` (stereo not shown) [Compound 75, 1-(3-((4,4-bis(octyloxy)butanoyl)oxy)-2-(((4-(diethylamino)butanoyl)oxy)methyl)propyl) 9-decyl nonanedioate], the “Encapsulation (%)” value [1] was 98%, the “Number mean (nm)” value [2] was 92.74 nm and the PDI [2] was 0.020. For the same compound, the “Z-avg (nm)” value [2] was 110.9 nm, the “Serum TTR % TSS” value [3] was 68% and the “Serum TTR” value [3] was 623 µg/mL. For the same compound, the pKa [4] was 6.45.
In the case of `CCCCCCCCCCOC(=O)CCCCCCCC(=O)OCC(COC(=O)CCCCCC(=O)OC(CCCCCCCC)CCCCCCCC)COC(=O)OCCCN(CC)CC` (stereo not shown) [Compound 76, 1-decyl 9-(3-(((3-(diethylamino)propoxy)carbonyl)oxy)-2-(((7-(heptadecan-9-yloxy)-7-oxoheptanoyl)oxy)methyl)propyl) nonanedioate], the “Encapsulation (%)” value [1] is reported as 99%, the “Number mean (nm)” value [2] is reported as 80.2 nm and the PDI [2] is reported as 0.097. The “Z-avg (nm)” value [2] was 111.8 nm, the “Serum TTR % TSS” value [3] was 81% and the “Serum TTR” value [3] was 735 µg/mL. The pKa [4] was 6.17.
For `CCCCCCCCCCOC(=O)CCCCCCCC(=O)OCC(COC(=O)CCCC(=O)OC(CCCCCCCC)CCCCCCCC)COC(=O)OCCCN(CC)CC` (stereo not shown) [Compound 77, 1-decyl 9-(3-(((3-(diethylamino)propoxy)carbonyl)oxy)-2-(((5-(heptadecan-9-yloxy)-5-oxopentanoyl)oxy)methyl)propyl) nonanedioate], the “Encapsulation (%)” value [1] was 99%, the “Number mean (nm)” value [2] was 85.4 nm and the PDI [2] was 0.006. The “Z-avg (nm)” value [2] was 101.8 nm, the “Serum TTR % TSS” value [3] was 53% and the “Serum TTR” value [3] was 478 µg/mL. The pKa [4] was 6.16.
In the case of `CCCCCCCCCCOC(=O)CCCCCCCC(=O)OCC(COC(=O)CCC(OCCCCCCCCC)OCCCCCCCCC)COC(=O)OCCCN(CC)CC` (stereo not shown) [Compound 79, 1-(3-((4,4-bis(nonyloxy)butanoyl)oxy)-2-((((3-(diethylamino)propoxy)carbonyl)oxy)methyl)propyl) 9-decyl nonanedioate], the “Encapsulation (%)” value [1] is reported as 99%, the “Number mean (nm)” value [2] is reported as 83.64 nm and the PDI [2] is reported as 0.019. The “Z-avg (nm)” value [2] was 99.24 nm, the “Serum TTR % TSS” value [3] was 39% and the “Serum TTR” value [3] was 351 µg/mL. For the same compound, the pKa [4] was 6.13.
For `CCCCCCCCCCOC(=O)CCCCCCCC(=O)OCC(COC(=O)CCCCCC(=O)OC(CCCCCCCC)CCCCCCCC)COC(=O)OCCC1CCCN1C` (stereo not shown) [Compound 80, 1-decyl 9-(3-((7-(heptadecan-9-yloxy)-7-oxoheptanoyl)oxy)-2-((((2-(1-methylpyrrolidin-2-yl)ethoxy)carbonyl)oxy)methyl)propyl) nonanedioate], the “Encapsulation (%)” value [1] was 98%, the “Number mean (nm)” value [2] was 87.3 nm and the PDI [2] was 0.016. For the same compound, the “Z-avg (nm)” value [2] was 105.8 nm, the “Serum TTR % TSS” value [3] was 116% and the “Serum TTR” value [3] was 873 µg/mL. For the same compound, the pKa [4] was 6.21.
With `CCCCCCCCCCOC(=O)CCCCCCCC(=O)OCC(COC(=O)CCCCCC(=O)OC(CCCCCCCC)CCCCCCCC)COC(=O)CCCN(C)C` (stereo not shown) [Compound 82, 1-decyl 9-(3-((4-(dimethylamino)butanoyl)oxy)-2-(((7-(heptadecan-9-yloxy)-7-oxoheptanoyl)oxy)methyl)propyl) nonanedioate] the “Encapsulation (%)” value [1] was 98%, the “Number mean (nm)” value [2] was 94.01 nm and the PDI [2] was 0.038. The “Z-avg (nm)” value [2] was 117.5 nm, the “Serum TTR % TSS” value [3] was 126% and the “Serum TTR” value [3] was 953 µg/mL. The pKa [4] was 6.31.
With `CCCCCC/C=C\COC(=O)CCCCCCCC(=O)OCC(COC(=O)CCC(OCCCCCCCCC)OCCCCCCCCC)COC(=O)OCCCN(CC)CC` (stereo not shown) [Compound 83, (Z)-1-(3-((4,4-bis(nonyloxy)butanoyl)oxy)-2-((((3-(diethylamino)propoxy)carbonyl)oxy)methyl)propyl) 9-(non-2-en-1-yl) nonanedioate] the “Encapsulation (%)” value [1] was 99%, the “Number mean (nm)” value [2] was 74.41 nm and the PDI [2] was 0.009. The “Z-avg (nm)” value [2] was 89.55 nm, the “Serum TTR % TSS” value [3] was 54% and the “Serum TTR” value [3] was 488 µg/mL. The pKa [4] was 6.16.
For `CCCCCC/C=C\COC(=O)CCCCCCCC(=O)OCC(COC(=O)CCC(OCCCCCCC)OCCCCCCC)COC(=O)OCCCN(CC)CC` (stereo not shown) [Compound 84, (Z)-1-(3-((4,4-bis(heptyloxy)butanoyl)oxy)-2-((((3-(diethylamino)propoxy)carbonyl)oxy)methyl)propyl) 9-(non-2-en-1-yl) nonanedioate], the “Encapsulation (%)” value [1] was 95%, the “Number mean (nm)” value [2] was 86.08 nm and the PDI [2] was 0.086. The “Z-avg (nm)” value [2] was 114.2 nm, the “Serum TTR % TSS” value [3] was 71% and the “Serum TTR” value [3] was 648 µg/mL. It also gave a pKa [4] of 6.16.
With `CCCCCC/C=C\COC(=O)CCCCCCCC(=O)OCC(COC(=O)CCCCCC(=O)OC(CCCCCCCC)CCCCCCCC)COC(=O)OCCCN(CC)CC` (stereo not shown) [Compound 85, (Z)-1-(3-(((3-(diethylamino)propoxy)carbonyl)oxy)-2-(((7-(heptadecan-9-yloxy)-7-oxoheptanoyl)oxy)methyl)propyl) 9-(non-2-en-1-yl) nonanedioate] the “Encapsulation (%)” value [1] was 99%, the “Number mean (nm)” value [2] was 81.21 nm and the PDI [2] was 0.006. The “Z-avg (nm)” value [2] was 97.86 nm, the “Serum TTR % TSS” value [3] was 84% and the “Serum TTR” value [3] was 762 µg/mL. It also gave a pKa [4] of 6.16.
In the case of `CCCCCC/C=C\COC(=O)CCCCCCCC(=O)OCC(COC(=O)CCCC(=O)OC(CCCCCCCC)CCCCCCCC)COC(=O)OCCCN(CC)CC` (stereo not shown) [Compound 86, (Z)-1-(3-(((3-(diethylamino)propoxy)carbonyl)oxy)-2-(((5-(heptadecan-9-yloxy)-5-oxopentanoyl)oxy)methyl)propyl) 9-(non-2-en-1-yl) nonanedioate], the “Encapsulation (%)” value [1] is reported as 98%, the “Number mean (nm)” value [2] is reported as 81.23 nm and the PDI [2] is reported as 0.016. For the same compound, the “Z-avg (nm)” value [2] was 99.01 nm, the “Serum TTR % TSS” value [3] was 64% and the “Serum TTR” value [3] was 582 µg/mL. The pKa [4] was 6.16.
In the case of `CCCCCCCCCCOC(=O)CCCCCCCC(=O)OCC(COC(=O)CCCC(=O)OC(CCCCCCCC)CCCCCCCC)COC(=O)OCCC1CCCN1C` (stereo not shown) [Compound 87, 1-decyl 9-(3-((5-(heptadecan-9-yloxy)-5-oxopentanoyl)oxy)-2-((((2-(1-methylpyrrolidin-2-yl)ethoxy)carbonyl)oxy)methyl)propyl) nonanedioate], the “Encapsulation (%)” value [1] is reported as 98%, the “Number mean (nm)” value [2] is reported as 81.57 nm and the PDI [2] is reported as 0.006. For the same compound, the “Z-avg (nm)” value [2] was 98.47 nm, the “Serum TTR % TSS” value [3] was 68% and the “Serum TTR” value [3] was 511 µg/mL. For the same compound, the pKa [4] was 6.52.
With `CCCCCCCCCCOC(=O)CCCCCCCC(=O)OCC(COC(=O)CCCC(=O)OC(CCCCCCCC)CCCCCCCC)COC(=O)NCCN(CC)CC` (stereo not shown) [Compound 88, 1-decyl 9-(3-(((2-(diethylamino)ethyl)carbamoyl)oxy)-2-(((5-(heptadecan-9-yloxy)-5-oxopentanoyl)oxy)methyl)propyl) nonanedioate] the “Encapsulation (%)” value [1] was 98%, the “Number mean (nm)” value [2] was 99.51 nm and the PDI [2] was 0.011. The “Z-avg (nm)” value [2] was 117.1 nm, the “Serum TTR % TSS” value [3] was 77% and the “Serum TTR” value [3] was 582 µg/mL. The pKa [4] was 6.84.
In the case of `CCCCCCCCCCOC(=O)CCCCCCCC(=O)OCC(COC(=O)CCCC(=O)OC(CCCCCCCC)CCCCCCCC)COC(=O)CCCN(C)C` (stereo not shown) [Compound 89, 1-decyl 9-(3-((4-(dimethylamino)butanoyl)oxy)-2-(((5-(heptadecan-9-yloxy)-5-oxopentanoyl)oxy)methyl)propyl) nonanedioate], the “Encapsulation (%)” value [1] is reported as 95%, the “Number mean (nm)” value [2] is reported as 89.4 nm and the PDI [2] is reported as 0.008. The “Z-avg (nm)” value [2] was 107.3 nm, the “Serum TTR % TSS” value [3] was 102% and the “Serum TTR” value [3] was 774 µg/mL. The pKa [4] was 6.79.
